How the values were obtained:
[1] = system: Akt phosphorylated at Ser473 in PC-3 cells; assay: Cellular assay: phosphorylation of Akt (Ser473) in PC-3 cells, MSD ELISA; format: cell-based; details: Homo sapiens, PC-3, 1 h, 60 min compound incubation, read-out: IC50 pAkt_S473
Method: (§1) Cellular activity of PI3Kβ inhibitors was determined by quantifying the phosphorylation of Akt in PC-3 cells. Akt phosphorylated at Ser473 and Thr308 were measured using an enzyme-linked immunosorbent assay (ELISA; Meso Scale Discovery (MSD), Gaithersburg, Md.) and specific primary antibodies from MSD.
(§2) On day 1, PC3 cells (ATCC #[…]) were seeded into PerkinElmer MW96 plates at 25.000 cells per well, in 75 μl complete culture medium (DMEM high glucose, AQmedia™, D0819, Sigma-Aldrich) containing 10% heat inactivated FCS and incubated at 37° C., […] during 24 hours. On day 2, compound or DMSO (0.3%) was added and cells were further incubated for 60 min at 37° C., 5% CO2 in a total volume of 100 μl of medium.
(§3) The phosphoprotein assay was executed according to vendor instructions in the Phospho-Akt (Ser473) Assay Whole Cell Lysate Kit (MSD #K15100D-3) and the Phospho-Akt (Thr308) Assay Whole Cell Lysate Kit (MSD #K151DYD-3) using the lysis, blocking and wash buffer provided.
(§4) Briefly, at the end of the cell treatment period, media were removed by aspiration and adherent cells were lysed in 50 μl ice-cold lysis buffer. MSD plates are supplied pre-coated with capture antibodies for Phospho-Akt (Ser473 and Thr308). After blocking, lysates from tissue culture plates were added and plates were washed. Then, a solution containing the detection antibody (anti-total Akt conjugated with an electrochemiluminescent compound-MSD Sulfo-tag label) was added. The signals were detected using an MSD SECTOR Imager 6000 and are proportional to the phospho-Akt titres.
(§5) Data were processed. The percentage of inhibition was plotted against the log concentration of test compounds, and the sigmoidal log concentration-effect curve of best fit was calculated by nonlinear regression analysis. From these concentration-response curves, the IC50 values were calculated. Five concentrations were used for curve fitting.

[2] = system: Akt phosphorylated at Thr308 in PC-3 cells; assay: Cellular assay: phosphorylation of Akt (Thr308) in PC-3 cells, MSD ELISA; format: cell-based; details: Homo sapiens, PC-3, 1 h, 60 min compound incubation, read-out: IC50 pAkt_Thr308
Method: as §1, §2, §3, §4, §5

PIK3Cδ_h = molecular target: T1, PIK3Cδ_h (Homo sapiens, UniProt O00329); assay: Enzyme binding assay (KINOMEscan); details: DiscoveRx
T1 construct: purchased DiscoveRx Corporation
T1 sequence (O00329 1-1044): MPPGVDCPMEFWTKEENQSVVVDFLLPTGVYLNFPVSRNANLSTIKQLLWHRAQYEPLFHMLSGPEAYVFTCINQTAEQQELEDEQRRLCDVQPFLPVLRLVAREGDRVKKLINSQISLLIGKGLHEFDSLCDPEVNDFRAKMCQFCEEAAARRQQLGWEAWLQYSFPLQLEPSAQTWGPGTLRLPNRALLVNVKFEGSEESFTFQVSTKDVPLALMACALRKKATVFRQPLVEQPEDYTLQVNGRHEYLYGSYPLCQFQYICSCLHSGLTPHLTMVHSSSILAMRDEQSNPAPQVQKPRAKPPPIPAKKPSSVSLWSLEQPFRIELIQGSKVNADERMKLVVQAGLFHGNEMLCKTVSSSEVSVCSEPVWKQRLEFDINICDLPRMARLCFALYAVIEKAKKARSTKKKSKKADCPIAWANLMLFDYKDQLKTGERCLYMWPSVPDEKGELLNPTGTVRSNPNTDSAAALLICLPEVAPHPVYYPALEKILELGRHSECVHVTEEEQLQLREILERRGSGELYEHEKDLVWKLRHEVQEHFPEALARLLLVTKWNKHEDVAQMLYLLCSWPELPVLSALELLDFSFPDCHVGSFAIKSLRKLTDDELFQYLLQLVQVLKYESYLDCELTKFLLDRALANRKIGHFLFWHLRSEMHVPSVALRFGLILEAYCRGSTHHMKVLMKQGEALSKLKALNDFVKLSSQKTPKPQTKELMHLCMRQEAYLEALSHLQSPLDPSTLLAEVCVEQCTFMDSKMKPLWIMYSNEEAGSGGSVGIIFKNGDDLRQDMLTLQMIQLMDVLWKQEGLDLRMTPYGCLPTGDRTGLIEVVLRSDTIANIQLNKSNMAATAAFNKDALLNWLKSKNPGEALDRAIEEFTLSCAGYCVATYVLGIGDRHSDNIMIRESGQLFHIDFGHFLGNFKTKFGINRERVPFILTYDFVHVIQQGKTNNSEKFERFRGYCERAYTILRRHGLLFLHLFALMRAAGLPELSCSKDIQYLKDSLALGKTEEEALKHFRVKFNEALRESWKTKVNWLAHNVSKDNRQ
Method: (§6) Enzyme Binding Assays (KINOMEscan®)
(§7) Kinase enzyme binding affinities of compounds disclosed herein were determined using the KINOMEscan technology performed by DiscoveRx Corporation, San Diego, Calif., USA (www.kinomescan.com). Table A reports the obtained Kd values (nM), with the Kd being the inhibitor binding constant: […]

PIK3Cα_h = molecular target: T2, PIK3Cα_h (Homo sapiens, UniProt P42336); assay: Enzyme binding assay (KINOMEscan); details: DiscoveRx
T2 construct: purchased DiscoveRx Corporation
Method: as §6, §7

MTOR_h = molecular target: T3, MTOR_h (Homo sapiens, UniProt P42345); assay: Enzyme binding assay (KINOMEscan); details: DiscoveRx
T3 construct: purchased DiscoveRx Corporation
Method: as §6, §7

PIK3Cγ_h = molecular target: T4, PIK3Cγ_h (Homo sapiens, UniProt P48736); assay: Enzyme binding assay (KINOMEscan); details: DiscoveRx
T4 construct: purchased DiscoveRx Corporation
Method: as §6, §7

PIK3Cβ_h = molecular target: T5, PIK3Cβ_h (Homo sapiens, UniProt P42338); assay: Enzyme binding assay (KINOMEscan); details: DiscoveRx
T5 construct: purchased DiscoveRx Corporation
Method: as §6, §7

T2 sequence (P42336 whole entry): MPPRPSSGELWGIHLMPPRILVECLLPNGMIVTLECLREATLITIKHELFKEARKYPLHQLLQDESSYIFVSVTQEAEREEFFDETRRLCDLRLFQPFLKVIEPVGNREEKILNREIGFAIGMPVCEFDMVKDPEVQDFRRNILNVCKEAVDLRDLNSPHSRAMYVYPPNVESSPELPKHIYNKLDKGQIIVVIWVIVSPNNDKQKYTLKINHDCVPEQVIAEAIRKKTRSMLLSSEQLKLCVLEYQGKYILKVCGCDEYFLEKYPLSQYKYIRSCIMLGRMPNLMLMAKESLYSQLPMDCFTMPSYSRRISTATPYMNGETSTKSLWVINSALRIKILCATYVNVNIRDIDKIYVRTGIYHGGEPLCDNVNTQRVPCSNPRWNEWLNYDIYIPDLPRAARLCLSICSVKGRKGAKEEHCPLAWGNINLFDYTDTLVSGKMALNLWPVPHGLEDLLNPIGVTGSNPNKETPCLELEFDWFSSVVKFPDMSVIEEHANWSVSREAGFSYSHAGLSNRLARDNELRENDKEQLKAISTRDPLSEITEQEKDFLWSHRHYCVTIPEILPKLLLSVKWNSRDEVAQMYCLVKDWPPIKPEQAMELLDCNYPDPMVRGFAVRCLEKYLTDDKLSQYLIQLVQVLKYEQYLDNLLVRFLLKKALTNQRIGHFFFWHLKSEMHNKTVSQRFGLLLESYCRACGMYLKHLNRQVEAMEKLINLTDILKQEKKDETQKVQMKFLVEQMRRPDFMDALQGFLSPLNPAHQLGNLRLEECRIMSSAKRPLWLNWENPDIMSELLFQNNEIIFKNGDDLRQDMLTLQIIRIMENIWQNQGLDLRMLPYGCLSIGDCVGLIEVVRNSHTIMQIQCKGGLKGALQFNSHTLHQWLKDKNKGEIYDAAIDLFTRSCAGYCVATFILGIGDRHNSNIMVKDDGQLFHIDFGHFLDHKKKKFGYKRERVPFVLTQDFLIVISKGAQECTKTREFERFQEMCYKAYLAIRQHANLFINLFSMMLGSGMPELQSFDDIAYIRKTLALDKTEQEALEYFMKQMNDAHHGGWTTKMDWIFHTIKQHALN
T4 sequence (P48736 whole entry): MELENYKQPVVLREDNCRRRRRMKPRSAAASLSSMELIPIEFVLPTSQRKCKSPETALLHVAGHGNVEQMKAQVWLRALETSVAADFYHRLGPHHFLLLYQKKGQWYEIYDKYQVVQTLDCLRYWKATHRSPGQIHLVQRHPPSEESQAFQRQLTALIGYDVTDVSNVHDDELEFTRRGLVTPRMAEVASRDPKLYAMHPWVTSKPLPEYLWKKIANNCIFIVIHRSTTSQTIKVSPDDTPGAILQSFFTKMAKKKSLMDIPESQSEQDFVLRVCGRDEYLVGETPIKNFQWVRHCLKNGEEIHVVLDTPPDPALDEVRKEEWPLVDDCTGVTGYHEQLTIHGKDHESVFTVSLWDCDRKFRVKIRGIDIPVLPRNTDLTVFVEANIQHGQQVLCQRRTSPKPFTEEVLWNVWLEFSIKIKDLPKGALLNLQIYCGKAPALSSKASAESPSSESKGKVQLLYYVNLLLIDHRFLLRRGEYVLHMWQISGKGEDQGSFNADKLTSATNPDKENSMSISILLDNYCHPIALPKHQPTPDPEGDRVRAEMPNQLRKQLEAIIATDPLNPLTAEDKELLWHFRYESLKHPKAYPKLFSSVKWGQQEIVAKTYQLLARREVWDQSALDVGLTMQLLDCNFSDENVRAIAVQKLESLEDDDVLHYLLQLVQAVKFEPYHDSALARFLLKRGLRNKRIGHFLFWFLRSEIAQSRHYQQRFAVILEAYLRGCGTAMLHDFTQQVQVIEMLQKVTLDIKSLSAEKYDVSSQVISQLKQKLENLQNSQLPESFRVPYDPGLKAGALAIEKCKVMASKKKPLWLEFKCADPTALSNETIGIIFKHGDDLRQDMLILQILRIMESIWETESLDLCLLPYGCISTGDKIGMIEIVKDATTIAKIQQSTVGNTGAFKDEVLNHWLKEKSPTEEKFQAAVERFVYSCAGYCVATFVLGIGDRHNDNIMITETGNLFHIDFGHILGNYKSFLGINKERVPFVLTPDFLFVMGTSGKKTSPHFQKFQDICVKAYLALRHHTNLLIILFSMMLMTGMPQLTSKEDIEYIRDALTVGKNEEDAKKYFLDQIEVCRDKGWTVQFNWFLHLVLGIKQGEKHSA
T5 sequence (P42338 whole entry): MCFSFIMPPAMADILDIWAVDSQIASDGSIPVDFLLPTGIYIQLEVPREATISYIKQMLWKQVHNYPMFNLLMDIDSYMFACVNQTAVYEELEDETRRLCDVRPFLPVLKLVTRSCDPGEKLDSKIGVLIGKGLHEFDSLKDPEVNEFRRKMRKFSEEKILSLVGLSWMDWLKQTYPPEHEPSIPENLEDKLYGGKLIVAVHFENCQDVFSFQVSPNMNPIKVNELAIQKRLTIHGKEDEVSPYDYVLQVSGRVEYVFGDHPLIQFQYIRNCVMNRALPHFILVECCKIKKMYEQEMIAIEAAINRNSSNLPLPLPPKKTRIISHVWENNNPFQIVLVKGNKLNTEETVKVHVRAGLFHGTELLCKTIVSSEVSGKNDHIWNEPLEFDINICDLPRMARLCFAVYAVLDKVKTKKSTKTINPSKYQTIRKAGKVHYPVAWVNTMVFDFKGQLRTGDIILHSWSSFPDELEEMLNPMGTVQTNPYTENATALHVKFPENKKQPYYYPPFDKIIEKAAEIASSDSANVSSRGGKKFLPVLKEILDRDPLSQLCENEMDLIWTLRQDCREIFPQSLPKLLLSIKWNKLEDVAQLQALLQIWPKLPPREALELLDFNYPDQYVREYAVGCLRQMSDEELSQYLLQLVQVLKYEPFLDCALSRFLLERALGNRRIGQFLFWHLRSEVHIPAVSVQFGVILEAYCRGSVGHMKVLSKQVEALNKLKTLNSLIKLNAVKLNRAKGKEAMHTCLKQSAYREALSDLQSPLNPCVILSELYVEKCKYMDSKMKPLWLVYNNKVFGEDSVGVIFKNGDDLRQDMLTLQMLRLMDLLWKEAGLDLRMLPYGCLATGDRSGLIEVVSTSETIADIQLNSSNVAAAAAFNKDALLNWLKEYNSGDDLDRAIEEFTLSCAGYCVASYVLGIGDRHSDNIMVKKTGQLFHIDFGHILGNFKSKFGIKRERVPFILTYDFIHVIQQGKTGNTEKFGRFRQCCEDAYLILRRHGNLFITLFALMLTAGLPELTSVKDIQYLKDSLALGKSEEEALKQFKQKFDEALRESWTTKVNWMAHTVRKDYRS

Compound	IC50 [1]	melting point	IC50 [2]	Kd (PIK3Cδ_h)	Kd (PIK3Cα_h)	Kd (MTOR_h)	Kd (PIK3Cγ_h)	Kd (PIK3Cβ_h)
Cc1nc2c(-c3ccn[nH]3)nc(C3=CCOCC3)cn2c1Cc1cccc(C(F)(F)F)c1C [Compound 1]	14 nM	240 °C	7 nM	69 nM	288 nM	935 nM	1060 nM	1.6 nM
Cc1nc2c(-c3c[nH]cn3)nc(C3=CCOCC3)cn2c1Cc1cccc(C(F)(F)F)c1C [Compound 6]	185 nM	197 °C	59 nM	682 nM	343 nM	2170 nM	4700 nM	5.5 nM
Cc1c(Cc2c(CN3CCC(CO)CC3)nc3cnc(N4CCOCC4)cn23)cccc1C(F)(F)F [Compound 10]	> 513 nM	198 °C	> 513 nM	4270 nM	> 30200 nM	> 30200 nM	> 30200 nM	41 nM
Cc1c(Cc2c(CN3C[C@@H](C)N[C@@H](C)C3)nc3ncc(N4CCOCC4)cn23)cccc1C(F)(F)F [Compound 19]	380 nM	263 °C	186 nM	1230 nM	16600 nM	> 30200 nM	> 30200 nM	4.2 nM
Cc1c(Cc2c(CN3CCCC4(CNC4)C3)nc3ccc(N4CCOCC4)cn23)cccc1C(F)(F)F [Compound 31]	479 nM	–	> 513 nM	1350 nM	> 30200 nM	> 30200 nM	> 30200 nM	20 nM
Cc1c(Cc2c(CN3CC4(CCN4)C3)nc3ccc(N4CCOCC4)cn23)cccc1C(F)(F)F [Compound 32]	191 nM	–	~178 nM	324 nM	7240 nM	27500 nM	8510 nM	2.2 nM
Cc1c(Cc2c(CNCCO)nc3ccc(N4CCOCC4)cn23)cccc1C(F)(F)F [Compound 34]	110 nM	–	70 nM	741 nM	16900 nM	23200 nM	> 30200 nM	9 nM
Cc1c(Cc2c(CNCCCO)nc3ccc(N4CCOCC4)cn23)cccc1C(F)(F)F [Compound 35]	74 nM	–	89 nM	575 nM	22400 nM	21900 nM	> 30200 nM	5.8 nM
Cc1c(Cc2c(CN(C)CCO)nc3ccc(N4CCOCC4)cn23)cccc1C(F)(F)F [Compound 36]	~224 nM	–	~132 nM	2140 nM	> 30200 nM	> 30200 nM	> 30200 nM	22 nM
Cc1c(Cc2c(CO)nc3c(-c4ccn[nH]4)cc(N4CCOCC4)cn23)cccc1C(F)(F)F [Compound 38]	> 513 nM	–	> 513 nM	2040 nM	2950 nM	2290 nM	4370 nM	71 nM
Cc1c(Cl)cccc1Nc1c(CO)nc2ccc(N3CCOCC3)cn12 [Compound 39]	~40 nM	–	28 nM	141 nM	468 nM	3980 nM	11200 nM	0.5 nM
Cc1c(Cc2c(CO)nc3c(-c4c[nH]cn4)cc(C4=CCOCC4)cn23)cccc1C(F)(F)F [Compound 41]	14 nM	–	14 nM	13 nM	96 nM	200 nM	324 nM	1.1 nM
Cc1c(Cc2c(CO)nc3c(-c4ccn[nH]4)cc(C4=CCOCC4)cn23)cccc1C(F)(F)F [Compound 42]	76 nM	–	~20 nM	186 nM	525 nM	151 nM	1070 nM	2.5 nM
Cc1c(Cc2c(CO)nc3c(-c4ncc[nH]4)cc(C4=CCOCC4)cn23)cccc1C(F)(F)F [Compound 43]	52 nM	–	~59 nM	35 nM	585 nM	1670 nM	1920 nM	0.9 nM
Cc1c(Cc2c(CO)nc3c(N)cc(N4CCOCC4)cn23)cccc1C(F)(F)F [Compound 45]	145 nM	–	166 nM	3470 nM	14500 nM	18600 nM	15800 nM	91 nM

More lines, now with the values ahead:

IC50 [1]	melting point	IC50 [2]	Kd (PIK3Cδ_h)	Kd (PIK3Cα_h)	Kd (MTOR_h)	Kd (PIK3Cγ_h)	Kd (PIK3Cβ_h)	Compound
~87 nM	257 °C	~65 nM	891 nM	1820 nM	12300 nM	6310 nM	4.7 nM	Cc1nc2c(C(N)=O)nc(C3=CCOCC3)cn2c1Cc1cccc(C(F)(F)F)c1C [Compound 5]
> 513 nM	142 °C	> 513 nM	14100 nM	20400 nM	> 30200 nM	> 30200 nM	126 nM	Cc1c(Cc2c(CCO)nc3cnc(N4CCOCC4)cn23)cccc1C(F)(F)F [Compound 13]
–	135 °C	–	–	–	–	–	–	CCOC(=O)Cc1nc2cnc(N3CCOCC3)cn2c1Cc1cccc(C(F)(F)F)c1C [Compound 17]
15 nM	228 °C	17 nM	123 nM	1480 nM	> 30200 nM	> 30200 nM	0.4 nM	Cc1c(Cc2c(CN3CC4(C3)CS(=O)(=O)C4)nc3ncc(N4CCOCC4)cn23)cccc1C(F)(F)F [Compound 21]
16 nM	–	15 nM	316 nM	589 nM	> 30200 nM	> 30200 nM	3 nM	Cc1c(Cc2c(CN3CC4(C3)CS(=O)(=O)C4)nc3ccc(N4CCOCC4)cn23)cccc1C(F)(F)F [Compound 33]
282 nM	–	~282 nM	1440 nM	10200 nM	24000 nM	> 30200 nM	20 nM	CC(=O)N(CCO)Cc1nc2ccc(N3CCOCC3)cn2c1Cc1cccc(C(F)(F)F)c1C [Compound 37]
15 nM	–	~10 nM	44 nM	302 nM	12900 nM	> 30200 nM	0.3 nM	Cc1c(Cc2c(CN3CC4(C3)CS(=O)(=O)C4)nc3ccc(C4=CCOCC4)cn23)cccc1C(F)(F)F [Compound 40]
135 nM	–	83 nM	562 nM	7240 nM	17800 nM	21400 nM	1.7 nM	Cc1nc2c(CO)cc(C3=CCOCC3)cn2c1Cc1cccc(C(F)(F)F)c1C [Compound 44]

Source: US10894793B2, “Bicyclic pyridine, pyrazine, and pyrimidine derivatives as PI3K beta inhibitors” (Janssen Pharmaceutica NV, priority 2016, dated 2021)
